Results from patent US7829283B2, “Methylation of estrogen receptor alpha and uses thereof” (John Wayne Cancer Institute, priority 2006, dated 2010).

Tests used:
melanoma cells = details: in vitro experiments; cited from earlier work
advanced melanoma = details: chemotherapy and BC regimens; cited from earlier work
[1] = tested on: ER-α mRNA expression in MCA melanoma cell line; experiment: ER-α mRNA re-expression by RT-PCR in melanoma cell lines after 5-Aza and TSA treatment; format: cell-based, human; details: data not shown
Method: To confirm down-regulation of ER-α expression by hypermethylation of the ER-α promoter region, cell lines were treated with the DNA-demethylating agent, 5-Aza, and the HDAC inhibitor, TSA. In combination with 5-Aza treatment, TSA can up-regulate the mRNA expression of genes silenced due to hypermethylation (26, 27). The MCF-7 cell line was used as an ER-α positive control and the MCA cell line was used as an ER-α negative control. Cell lines were maintained in RPMI 1640 medium supplemented with heat-inactivated 10% fetal bovine serum (FBS), penicillin G, and streptomycin (100 U/ml). Cells were treated with 1000 nM TSA for 24 hr (Wako Biochemicals, Osaka, Japan) and 1000 nM 5-Aza for five days (Sigma Chemical Co., St Louis, Mo.). After treatment with 5-Aza and TSA, melanoma cells were washed with phosphate buffered saline (PBS) and harvested with 0.25% trypsin-0.53 mM EDTA (Gibco, Auckland, N.J.). The mRNA expression level of ER-α was assessed by RT-PCR before and after 5-Aza and TSA treatment. […] The RNA was quantified and assessed for purity using ultraviolet spectrophotometry and the RIBOGreen detection assay (Molecular Probes, Eugene, Oreg.). The expression of mRNA for GAPDH, an internal reference housekeeping gene, was assessed by RT-PCR on all RNA samples to verify the integrity of RNA and to indicate equal loading of PCR products for gel electrophoresis. […]

## CC/C(=C(\c1ccccc1)c1ccc(OCCN(C)C)cc1)c1ccccc1 [tamoxifen]
Melanoma cells
  growth inhibition of melanoma cells in vitro: effective growth inhibitor
Advanced melanoma
  overall survival in advanced melanoma: has not been shown to significantly improve overall survival

## CC(/C=C/C(=O)NO)=C\[C@@H](C)C(=O)c1ccc(N(C)C)cc1 [TSA, trichostatin A]
[1]
  ER-α mRNA expression, single agent versus need for the second agent: necessary to significantly increase expression above pretreatment levels

## Nc1ncn([C@H]2C[C@H](O)[C@@H](CO)O2)c(=O)n1 [5-Aza, 5-aza-2-deoxycytidine]
[1]
  ER-α mRNA expression, single agent versus need for the second agent: did not significantly increase
